Measurements from US9073936B2, “Organic compounds” (INTRA-CELLULAR THERAPIES, INC., priority 2013, dated 2015).

Experiments:
[1] = target: recombinant full length human PDE1B (r-hPDE1B) (Homo sapiens (Human), UniProt Q01064); assay: PDE1 inhibition in vitro, IMAP phosphodiesterase assay (r-hPDE1B); type: biochemical
Text: (§1) Phosphodiesterase 1 (PDE1) is a calcium/calmodulin dependent phosphodiesterase enzyme that converts cyclic guanosine monophosphate (cGMP) to 5′-guanosine monophosphate (5′-GMP). PDE1 can also convert a modified cGMP substrate, such as the fluorescent molecule cGMP-fluorescein, to the corresponding GMP-fluorescein. The generation of GMP-fluorescein from cGMP-fluorescein can be quantitated, using, for example, the IMAP (Molecular Devices, Sunnyvale, Calif.) immobilized-metal affinity particle reagent.
(§2) Briefly, the IMAP reagent binds with high affinity to the free 5′-phosphate that is found in GMP-fluorescein and not in cGMP-fluorescein. The resulting GMP-fluorescein-IMAP complex is large relative to cGMP-fluorescein. Small fluorophores that are bound up in a large, slowly tumbling, complex can be distinguished from unbound fluorophores, because the photons emitted as they fluoresce retain the same polarity as the photons used to excite the fluorescence.
(§3) In the phosphodiesterase assay, cGMP-fluorescein, which cannot be bound to IMAP, and therefore retains little fluorescence polarization, is converted to GMP-fluorescein, which, when bound to IMAP, yields a large increase in fluorescence polarization (Δmp). Inhibition of phosphodiesterase, therefore, is detected as a decrease in Δmp.
(§4) Materials: All chemicals are available from Sigma-Aldrich (St. Louis, Mo.) except for IMAP reagents (reaction buffer, binding buffer, FL-GMP and IMAP beads), which are available from Molecular Devices (Sunnyvale, Calif.). […]
(§5) The reaction is incubated in dark at room temperature for 15 min. […] The plate is incubated at room temperature for 1 hour to allow IMAP binding to proceed to completion, and then placed in an Envision multimode microplate reader (PerkinElmer, Shelton, Conn.) to measure the fluorescence polarization (Δmp).
(§6) A decrease in GMP concentration, measured as decreased Δmp, is indicative of inhibition of PDE activity.

[2] = Metabolism rates in human liver microsomes (stability); type: in vitro ADME; settings: pooled human liver microsomes, pH 7.5, 0.5 mg/ml protein, 1 μM test compound, NADPH, 37° C., read-out: T1/2 in human liver microsomes
Experimental: Pooled human liver microsomes (final protein concentration 0.5 mg/ml) are incubated with test compound (final concentration 1 μM) in the presence of a NADPH regenerating system. The final buffer composition is: 1 mM EDTA, 100 mM potassium phosphate pH 7.5. The reactions are initiated by addition of the cofactor NADPH, and terminated after a 0, 15, 30, 45 and 60 minute incubation at 37° C. by addition of cold acetonitrile containing the internal analysis standard. After centrifuging at 4000 rpm for 20 minutes at 4° C., the supernatant are transferred for analysis using HPLC/MS/MS to measure the disappearance of the test compound. The percentage of the test compound remaining over time is calculated relative to the zero time point. The intrinsic clearance rates were calculated based on percentage of compound remaining at the 15-60 min. time points.

[3] = target: recombinant full length human PDE1A (r-hPDE1A) (Homo sapiens (Human), UniProt P54750); assay: PDE1 inhibition in vitro, IMAP phosphodiesterase assay (r-hPDE1A); type: biochemical
Text: as §1, §2, §3, §4, §5, §6

PDE1 = PDE1 inhibition in vitro, IMAP phosphodiesterase assay; type: biochemical; settings: cGMP-fluorescein substrate, read-out: IC50 (PDE1 inhibitory activity)
Text: as §1, §2, §3
Materials: All chemicals are available from Sigma-Aldrich (St. Louis, Mo.) except for IMAP reagents (reaction buffer, binding buffer, FL-GMP and IMAP beads), which are available from Molecular Devices (Sunnyvale, Calif.).
Assay: The following phosphodiesterase enzymes may be used: 3′,5′-cyclic-nucleotide-specific bovine brain phosphodiesterase (Sigma, St. Louis, Mo.) and recombinant full length human PDE1A and PDE1B (r-hPDE1A and r-hPDE1B, respectively) which may be produced e.g., in HEK or SF9 cells by one skilled in the art. The PDE1 enzyme is reconstituted with 50% glycerol to 2.5 U/ml. One unit of enzyme will hydrolyze 1.0 μmole of 3′,5′-cAMP to 5′-AMP per min at pH 7.5 at 30° C. […] 99 μl of diluted enzyme solution is added into each well in a flat bottom 96-well polystyrene plate to which 1 μl of test compound dissolved in 100% DMSO is added. The test compounds are mixed and pre-incubated with the enzyme for 10 min at room temperature.
The plate is incubated at room temperature for 1 hour to allow IMAP binding to proceed to completion, and then placed in an Envision multimode microplate reader (PerkinElmer, Shelton, Conn.) to measure the fluorescence polarization (Δmp).
as §6

rats = assay: Novel Object Recognition assay; type: in vivo; settings: rat, PO, dosed 2 hours before T1, 24 h interval
Text: To measure the cognition-enhancing effects of the compounds of the invention, the candidate compounds may be evaluated in a Novel Object Recognition (NOR) assay. This assay protocol is described in detail in Ennaceur et al., Behav. Brain Res. (1988) 31:47-59 and Prickaerts et al., Eur. J. Pharmacol. (1997) 337:125-136, the contents of each of which are incorporated by reference in their entirety. In this protocol, the rats are introduced to a chamber at time T1 and allowed to interrogate two identical “familiar objects” for six minutes. Twenty-four hours later, they are re-introduced to this chamber, where one of the familiar objects has been replaced with a novel object. The “discrimination index”, a measure of the time spent in close proximity to the novel over the familiar object, may then be measured. Since rodents will forget the original experiment at T1 within 4 hours, this test with a 24 h interval is a measure of strong cognitive enhancement.
This assay protocol can be modified in order to evaluate different phases of memory. There are three general phases of memory, namely, acquisition, consolidation and retrieval. In this modified protocol, the rats may be dosed with the candidate compound two hours before T1 and tested 24 h later without additional dosing. This is a test of the acquisition process. […]

C57BL/6 mice = assay: Haloperidol induced catalepsy model (bar grip test); type: in vivo, mouse; settings: haloperidol 3 mg/Kg PO, step down latency
Text: To evaluate the potential beneficial effects to motor defects present in schizophrenics treated with typical and atypical antipsychotic agents and in Parkinson's disease patients, the compounds of the invention may be tested in a reversal of catalepsy model in which motor freezing, or catalepsy, is induced by potent dopamine D2 receptor antagonists such as haloperidol or risperidone. The method uses the “bar grip test”, in which the front paws of the mouse are placed so as to grip a 3 mm-diameter, suspended wooden bar. A “step down latency” is measured by recording the time until the mouse removes its paws from the wooden bar to the floor surface. Catalepsy is a freezing of the musculature that prevents the mouse from moving off the bar. […]
A catalepsy score is recorded for each mouse at 2, 3, 4, and 6 hours after administration of drugs. […] The latency until the mouse steps both paws down from the bar to the floor surface (i.e., step down latency) is recorded up to 120 sec. […] If none of the 10 attempts are beyond 10 sec, the longest duration recorded is used as the catalepsy score. Otherwise, the initial cataleptic duration (>10 sec) is recorded during the 120 sec testing time. Mean step down latency is calculated for each treatment group.

| Structure (SMILES) | Ki [1] | half-life at 1 μM [2] | Ki [3] | IC50 (PDE1) | minimal effective dose, Novel Object Recognition (rats) | minimal effective dose, catalepsy model (C57BL/6 mice) |
| --- | --- | --- | --- | --- | --- | --- |
| CC(=O)c1ccc(Cn2nc3c(c2Nc2ccc(F)c(C)c2)C(=O)N(C)C2=NC(C)(C)CN23)cc1 [Example 4, 7,8-Dihydro-2-(4-acetylbenzyl)-3-(4-fluoro-3-methylphenylamino)-5,7,7-trimethyl-[2H]-imidazo-[1,2-a]pyrazolo[4,3-e]pyrimidin-4(5H)-one] | 0.4 nM | 1.12 h | 0.1 nM | ≤ 5 nM |  |  |
| CC(O)c1ccc(Cn2nc3c(c2Nc2ccc(F)cc2)C(=O)N(C)C2=NC(C)(C)CN23)cc1 (stereo not drawn) [Example 2, 7,8-Dihydro-2-(4-(1-hydroxyethyl)benzyl)-3-(4-fluorophenylamino)-5,7,7-trimethyl-[2H]-imidazo-[1,2-a]pyrazolo[4,3-e]pyrimidin-4(5H)-one] | 4 nM |  | 0.5 nM | ≤ 5 nM |  |  |
| CC(=O)c1ccc(Cn2nc3c(c2Nc2ccc(F)cc2)C(=O)N(C)C2=NC(C)(C)CN23)cc1 [Example 1, 7,8-Dihydro-2-(4-acetylbenzyl)-3-(4-fluorophenylamino)-5,7,7-trimethyl-[2H]-imidazo-[1,2-a]pyrazolo[4,3-e]pyrimidin-4(5H)-one] |  | 2.85 h |  | ≤ 5 nM | 0.1 mg/kg | 0.1 mg/kg |
| CC(=O)c1ccc(Cn2nc3c(c2Nc2ccc(F)c(F)c2)C(=O)N(C)C2=NC(C)(C)CN23)cc1 [Example 3, 7,8-Dihydro-2-(4-acetylbenzyl)-3-(3,4-difluorophenylamino)-5,7,7-trimethyl-[2H]-imidazo-[1,2-a]pyrazolo[4,3-e]pyrimidin-4(5H)-one] | 4 nM | 1.3 h | 0.3 nM | ≤ 5 nM |  |  |
